Test results from publication PMC4505086, “Azobenzene-based inhibitors of human carbonic anhydrase II” (Beilstein Journal of Organic Chemistry, 2015).

Target: T1, human carbonic anhydrase II (hCAII) (Homo sapiens, UniProt P00918)
T1 construct: made in house
Test: colorimetric endpoint measurement of hCAII-catalyzed pNPA hydrolysis
Type: biochemical
Conditions: for Ki: calculated from IC50 by Cheng–Prusoff equation, Km = 1092.5 µM for pNPA, [S] = 5.0 mM; for IC50: wild-type hCAII 500 nM, pNPA 5 mM, 50 mM Tris pH 7.4, 20–30 min in the dark, absorbance at 400 nm
Excerpt: In order to determine the half-maximal inhibitory concentrations (IC50) and the inhibitory constants (Ki) towards hCAII for our library, we used a colorimetric endpoint measurement of the catalyzed pNPA hydrolysis (Figure 1a). Usually, a dansyl competition assay is employed for this purpose. However, as this assay is fluorescence-based and azobenzenes can quench fluorescence, this might cause a distortion in the obtained data. Furthermore, irradiation with UV light (i.e., λ = 280 nm for tryptophan excitation) can result in azobenzene-cis-isomerization, which could lead to different binding characteristics. Therefore, we aimed at the endpoint absorbance system described herein.
5. hCAII purification, crystallization and assay
5.1. Purification and crystallization
Wild-type human Carbonic Anhydrase II (hCAII) was expressed and purified as […]
previously reported. […]
5.2. Determination of half-maximal inhibitory concentration (IC50)
Approximately 1.0 mg of hCAII was dissolved in 100 µL of 50 mM Tris (pH 7.4) and diluted to a final concentration of 500 nM (concentration was determined in duplicates by absorbance spectroscopy) and mixed with the appropriate amount of blocker. The enzyme-blocker solution was then pipetted into a 96-well plate (white, clear flat bottom) containing pNPA for a final concentration of 5 mM. This was added simultaneously with a multi-well-pipette. After 20–30 min of incubation in the dark, the absorbance was measured using a plate reader at λ = 400 nm. Obtained data was background substracted and divided by data points of non-inhibited hCAII in order to obtain relative activity. The data points were fitted sigmoidal (eq. 1) or using the Hill equation (eq. 2) using IgorPro […]
All experiments were performed at least in triplicates. […]
y = base + [max / (1 + exp[(xhalf – x)/rate)]] (eq. 1) y = base + (max – base)/(1 + (xhalf / x)rate) (eq. 2)
5.3. Determination of inhibitory constants (Ki)
Inhibitory constants were determined using the Cheng–Prussow equation (eq. 3) with the obtained half-maximal inibitory constants (IC50) and with substrate concentration [S]
The Michaelis–Menten constant Km was obtained for this assay system independently and […]

Ki [µM]	IC50 [µM]	SMILES
0.0301	0.168	CCOC(=O)c1ccc(/N=N/c2ccc(S(N)(=O)=O)cc2)cc1 [1i, (E)-Ethyl 4-((4-sulfamoylphenyl)diazenyl)benzoate]
0.0554	0.309	NS(=O)(=O)c1ccc(/N=N/c2ccc(N3CCOCC3)cc2)cc1 [1c]
0.0448	0.25	NS(=O)(=O)c1ccc(/N=N/c2ccccc2)cc1 [1h]
0.0297	0.166	NS(=O)(=O)c1ccc(/N=N/c2ccc(O)cc2)cc1 [1a]

The next lines start with the compound.

SMILES	Ki [µM]	IC50 [µM]
Cc1ccc(/N=N/c2ccc(S(N)(=O)=O)cc2)cc1 [1f]	0.0651	0.363
[N-]=[N+]=Nc1ccc(/N=N/c2ccc(S(N)(=O)=O)cc2)cc1 [1e]	0.0461	0.257
NS(=O)(=O)c1ccc(/N=N/c2ccc([N+](=O)[O-])cc2)cc1 [1g]	0.0286	0.159
CCN(CC)c1ccc(/N=N/c2ccc(S(N)(=O)=O)cc2)cc1 [1b]	0.025	0.14
